{"source": "patent US12486246B2", "about": "“Replication protein A (RPA)-DNA interaction inhibitors” (THE TRUSTEES OF INDIANA UNIVERSITY, priority 2019, dated 2025)", "key": {"[1]": {"test_system": "sonicated salmon sperm DNA", "assay": "Fluorescent intercalator displacement (FID) assay, SYBR-Green", "format": "binding", "details": "25 mM MOPS pH 6.5", "procedure,_shortened": "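Displacement of SYBR-Green from sonicated salmon sperm DNA (8.29 ng/μL) in 25 mM MOPS pH 6.5 with compound at indicated concentrations; doxorubicin positive control. Fluorescence (Ex 485/Em 528 nm) read within 5 min of incubation.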"}, "H460 NSCLC cells [2]": {"test_system": "H460 NSCLC cells", "assay": "Cell survival, CCK-8 metabolic assay, single agent", "format": "cell-based", "description": "(§1) Cell survival was determined by CCK-8 viability assay and/or clonogenic survival assay in 96 well plates or 24 well plates, respectively and combination index (CI) analysis of drug-drug interactions determined by Chou-Talalay analysis as we have previously described. • 1) CCK-8 metabolic assay: Cells were plated (2500 cells/well) in 96-well plate and allowed to grow for at least 18 hours in at 37° C. in the presence of 5% CO2 before treatment with inhibitor for 48 hours. CCK-8 solution (Dojindo) was added to 10% of the total media volume and after 1-4 hours of incubation absorbance at 450 nm was determined using BioTek® Synergy™ H1 hybrid multi-mode microplate reader • 2) Clonogenic survival assay: Cells were plated in a 24 well (20,000 cells/well) plate, incubated for at least 18 hours and then treated with inhibitor. […] Images of the stained colonies were captured with a Fuji LAS-3000 CCD system then counted using OpenCFU software. Viability is determined as a percent of vehicle controls and plotted versus drug concentration. • 3) Assessment of synergy via combination index (CI): In the combination index studies, cells (H460 or SKGT4) were treated with RPA inhibitor and Pt/etoposide/bleomycin/taxol/DDR inhibitor alone as well as the combination of both—the inhibitor and the DNA damaging chemotherapeutic agent/DDR inhibitor. […]"}, "[3]": {"test_system": "A2780 epithelial ovarian cancer (EOC) cells", "assay": "Cell survival, single agent", "format": "cell-based", "description": "as §1"}, "[4]": {"test_system": "GCT27 testicular cancer cells", "assay": "Cell survival, single agent", "format": "cell-based", "description": "as §1"}, "H460 NSCLC cells [5]": {"test_system": "H460 NSCLC cells", "assay": "Combination index (Chou-Talalay), CCK-8 assay", "format": "cell-based", "description": "(§2) Cell survival was determined by CCK-8 viability assay and/or clonogenic survival assay in 96 well plates or 24 well plates, respectively and combination index (CI) analysis of drug-drug interactions determined by Chou-Talalay analysis as we have previously described. • 1) CCK-8 metabolic assay: Cells were plated (2500 cells/well) in 96-well plate and allowed to grow for at least 18 hours in at 37° C. in the presence of 5% CO2 before treatment with inhibitor for 48 hours. CCK-8 solution (Dojindo) was added to 10% of the total media volume and after 1-4 hours of incubation absorbance at 450 nm was determined using BioTek® Synergy™ H1 hybrid multi-mode microplate reader • 2) Clonogenic survival assay: Cells were plated in a 24 well (20,000 cells/well) plate, incubated for at least 18 hours and then treated with inhibitor. After 48 hours of treatment, the cells are re-plated in 10 cm dishes (500 cells/dish) and incubated for 8-10 days to allow colony formation. Plates are washed with PBS, fixed with glutaraldehyde and stained with crystal violet. Images of the stained colonies were captured with a Fuji LAS-3000 CCD system then counted using OpenCFU software. Viability is determined as a percent of vehicle controls and plotted versus drug concentration. • 3) Assessment of synergy via combination index (CI): In the combination index studies, cells (H460 or SKGT4) were treated with RPA inhibitor and Pt/etoposide/bleomycin/taxol/DDR inhibitor alone as well as the combination of both—the inhibitor and the DNA damaging chemotherapeutic agent/DDR inhibitor. The range of treatment was dependent on the IC50 of each inhibitor/drug. If the IC50 was X, then the cells were treated at a range of 0.04× to 5× concentration in a CCK-8 metabolic assay. The kill curves from both the single agent treatments as well as the combination treatment were used in a Chou-Talalay based method to determine the combination index (CI) at different fractions of cells affected.^40 A CI>1.0 indicates antagonism between the two agents, while a CI<1.0 indicates synergy.\n(§3) Inhibiting RPA can act synergistically with DNA damaging therapeutics including cisplatin and etoposide (FIG. 4C). In these studies, we used the Chou-Talalay method, which provides a combination index (CI) that quantifies synergistic activity for each drug combination. […] The synergistic activity of compounds described herein with DNA damaging agents may be explained by RPA's role in the DNA damage response and signaling."}, "SKGT-4 EAC cells": {"test_system": "SKGT-4 EAC cells", "assay": "Combination index (Chou-Talalay), CCK-8 assay", "format": "cell-based", "description": "as §2, §3"}, "H460 cells": {"test_system": "H460 cells", "assay": "Caspase 3/7 activation (CellEvent Caspase-3/7 Green)", "format": "cell-based", "details": "24 hours treatment", "description": "Apoptosis induction was determined by activation of Caspase 3 and 7 using the CellEvent™ Caspase-3/7 Green Detection Reagent (Invitrogen). H460 cells were plated at […] in black 96 well plates with clear bottoms (Costar) and incubated for 24 hours prior to treatments. Cells were treated with the indicated concentration of compound 43 or cisplatin for 24 hours. The vehicle (DMSO) concentration was held constant at 1% for compound 43 treatments. For caspase 3/7 detection, media was removed and replaced with PBS containing 5% FBS and 2 μM CellEvent™ Caspase-3/7 Green Detection Reagent. Cells were incubated at 37° C./5% CO2 for 1 hour and fluorescence intensity was measured in a BioTek Synergy H1 plate reader (excitation/emission 485/528). Images were captured with an Evos FL2 Auto microscope (Invitrogen) using a 10× objective."}}, "data": [{"compound": "CCOc1ccc2cc(C3CC(c4ccc(I)cc4)=NN3C(=O)CCCC(=O)NCCCN3CCOCC3)c(Cl)nc2c1", "note": "(stereo not drawn) [Compound 43, 5-(5-(2-Chloro-7-ethoxyquinolin-3-yl)-3-(4-iodophenyl)-4,5-dihydro-1H-pyrazol-1-yl)-N-(3-morpholinopropyl)-5-oxopentanamide]", "values": [{"measurement": "DNA binding activity (displacement of SYBR-Green intercalator)", "setting": "[1]", "result": "No significant DNA binding activity"}, {"measurement": "cellular anticancer activity compared to compound 9", "setting": "H460 NSCLC cells [2]", "result": "increase in cellular anticancer activity"}, {"measurement": "cytotoxicity as compared to H460 NSCLC cells", "setting": "[3]", "result": "increased cytotoxicity"}, {"measurement": "cytotoxicity as compared to H460 NSCLC cells", "setting": "[4]", "result": "increased cytotoxicity"}, {"measurement": "synergy (combination index) with bleomycin", "setting": "H460 NSCLC cells [5]", "result": "stronger synergy"}, {"measurement": "synergy (combination index) with DNA damaging therapeutics cisplatin and etoposide", "setting": "H460 NSCLC cells [5]; CI <1.0 = synergy", "result": "even greater synergy than either of its predecessors"}, {"measurement": "synergy with PARP, DNA-PK, ATR and WEE1 inhibitors", "setting": "SKGT-4 EAC cells; EAC cell model, BMN637, NU7441, VE821, MK1775", "result": "effectively synergizes"}, {"measurement": "combination interaction with taxol", "setting": "SKGT-4 EAC cells; SKGT-4 EAC cells, Chou-Talalay", "result": "additive interaction"}, {"measurement": "caspase 3 and 7 activation", "setting": "H460 cells", "result": "potently activates caspase 3 and 7"}]}]}
